Laboratory results taken from PubChem BioAssay AID330 (DTP/NCI, 2004).
“And” between values parts separate entries of the source, which are not always exact repeats. Equal values may be shown once. Toxic doses and inconclusive results are not listed. The calls were made as follows: active = survival T/C of 150% or more; inactive = T/C below 125% in these data.

Test system: P388 leukemia ip, CD2F1 mice, survival T/C
Experiment: NCI In Vivo Anticancer Drug Screen. Data for tumor model P388 Leukemia (intraperitoneal) in CD2F1 (CDF1) mice
Conditions: endpoint: median survival time, higher = longer survival
Procedure, shortened: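 Mice carrying the transplanted tumor received test compound or vehicle. Survival was recorded in each group, and the value is the treated-group measurement divided by that of the vehicle-treated control group.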

[1] = dose: 50.0 mg/kg/injection, schedule: Q01DX009 (ip), vehicle: saline with Tween-80
[2] = dose: 100.0 mg/kg/injection, schedule: Q01DX009 (ip), vehicle: saline with Tween-80
[3] = dose: 25.0 mg/kg/injection, schedule: Q01DX009 (ip), vehicle: Klucel (hydroxypropylcellulose) (HPC)
[4] = dose: 50.0 mg/kg/injection, schedule: Q01DX009 (ip), vehicle: Klucel (hydroxypropylcellulose) (HPC)
[5] = dose: 100.0 mg/kg/injection, schedule: Q01DX009 (ip), vehicle: Klucel (hydroxypropylcellulose) (HPC)
[6] = dose: 60.0 mg/kg/injection, schedule: Q01DX005 (ip), vehicle: saline
[7] = dose: 120.0 mg/kg/injection, schedule: Q01DX005 (ip), vehicle: saline
[8] = dose: 240.0 mg/kg/injection, schedule: Q01DX005 (ip), vehicle: saline
[9] = dose: 50.0 mg/kg/injection, schedule: Q01DX005 (ip), vehicle: Klucel (hydroxypropylcellulose) (HPC)
[10] = dose: 100.0 mg/kg/injection, schedule: Q01DX005 (ip), vehicle: Klucel (hydroxypropylcellulose) (HPC)
[11] = dose: 100.0 mg/kg/injection, schedule: Q01DX001 (ip), vehicle: saline with Tween-80
[12] = dose: 200.0 mg/kg/injection, schedule: Q01DX001 (ip), vehicle: saline with Tween-80
[13] = dose: 200.0 mg/kg/injection, schedule: Q01DX005 (ip), vehicle: Klucel (hydroxypropylcellulose) (HPC)
[14] = dose: 200.0 mg/kg/injection, schedule: Q01DX009 (ip), vehicle: Klucel (hydroxypropylcellulose) (HPC)
[15] = dose: 60.0 mg/kg/injection, schedule: Q01DX005 (ip), vehicle: saline with Tween-80
[16] = dose: 120.0 mg/kg/injection, schedule: Q01DX005 (ip), vehicle: saline with Tween-80

Measured: T/C

CCCCCCCCCOCC(=O)OC
inactive: [1] 105 % of control | [2] 106 % of control | dose: 200.0 mg/kg/injection, schedule: Q01DX009 (ip), vehicle: saline with Tween-80 101 % of control

CC(C)=NNS(=O)(=O)c1ccccc1
inactive: dose: 6.25 mg/kg/injection, schedule: Q01DX009 (ip), vehicle: Klucel (hydroxypropylcellulose) (HPC) 108 % of control | dose: 12.5 mg/kg/injection, schedule: Q01DX009 (ip), vehicle: Klucel (hydroxypropylcellulose) (HPC) 110 % of control | [3] 100 % of control | [4] 110 % of control | [5] 108 % of control

O/C(=C\C(=S)S)c1ccccc1
inactive: dose: 1.56 mg/kg/injection, schedule: Q04DX003 (ip), vehicle: Klucel (hydroxypropylcellulose) (HPC) 96 % of control | dose: 3.12 mg/kg/injection, schedule: Q04DX003 (ip), vehicle: Klucel (hydroxypropylcellulose) (HPC) 96 % of control | dose: 6.25 mg/kg/injection, schedule: Q04DX003 (ip), vehicle: Klucel (hydroxypropylcellulose) (HPC) 97 % of control

CCn1ncc(N=O)c1N
inactive: [6] 104 % of control and 100 % of control | [7] 92 % of control and 104 % of control | [8] 90 % of control and 108 % of control

CC(=O)/C(=C\c1ccccc1Cl)C(=O)CCN(C)C
inactive: dose: 40.0 mg/kg/injection, schedule: Q01DX005 (ip), vehicle: saline 115 % of control | [6] 107 % of control and 112 % of control | [7] 121 % of control | [8] 122 % of control

CC(C)CS(=O)(=O)OCCCCOS(=O)(=O)CC(C)C
inactive: [9] 115 % of control | [10] 111 % of control

Nc1nc(N)c(N)c(N)n1
inactive: dose: 50.0 mg/kg/injection, schedule: Q04DX003 (ip), vehicle: saline with Tween-80 98 % of control | dose: 100.0 mg/kg/injection, schedule: Q04DX003 (ip), vehicle: saline with Tween-80 104 % of control | dose: 200.0 mg/kg/injection, schedule: Q04DX003 (ip), vehicle: saline with Tween-80 97 % of control | dose: 400.0 mg/kg/injection, schedule: Q04DX003 (ip), vehicle: saline with Tween-80 96 % of control

COc1ccc(/C=N\N=C(/[O-])c2ccc(Cl)cc2)cc1.COc1ccc(/C=N\N=C(/[O-])c2ccc(Cl)cc2)cc1.[Mn+2].[OH3+].[OH3+]
inactive: dose: 50.0 mg/kg/injection, schedule: Q04DX002 (ip), vehicle: saline with Tween-80 102 % of control | dose: 100.0 mg/kg/injection, schedule: Q04DX002 (ip), vehicle: saline with Tween-80 102 % of control | dose: 200.0 mg/kg/injection, schedule: Q04DX002 (ip), vehicle: saline with Tween-80 104 % of control

CCc1cnc(=S)n(-c2ccccc2)c1
inactive: [11] 99 % of control | [12] 95 % of control

O=[N+]([O-])O.[Ga]
inactive: dose: 6.25 mg/kg/injection, schedule: Q01DX005 (ip), vehicle: saline 100 % of control | dose: 6.25 mg/kg/injection, schedule: Q01DX010 (ip), vehicle: saline 100 % of control | dose: 12.5 mg/kg/injection, schedule: Q01DX005 (iv), vehicle: saline 99 % of control | dose: 12.5 mg/kg/injection, schedule: Q01DX010 (ip), vehicle: saline 100 % of control | dose: 25.0 mg/kg/injection, schedule: Q01DX005 (ip), vehicle: saline 100 % of control and 123 % of control | dose: 25.0 mg/kg/injection, schedule: Q01DX005 (iv), vehicle: saline 96 % of control | dose: 25.0 mg/kg/injection, schedule: Q01DX010 (ip), vehicle: saline 118 % of control | dose: 50.0 mg/kg/injection, schedule: Q01DX005 (iv), vehicle: saline 98 % of control and 91 % of control | dose: 50.0 mg/kg/injection, schedule: Q01DX010 (ip), vehicle: saline 100 % of control

CC(C)C1CCC2(C)OC2C1=O (stereo not given)
inactive: dose: 25.0 mg/kg/injection, schedule: Q04DX002 (ip), vehicle: saline 100 % of control | dose: 50.0 mg/kg/injection, schedule: Q04DX002 (ip), vehicle: saline 98 % of control | dose: 100.0 mg/kg/injection, schedule: Q04DX002 (ip), vehicle: saline 100 % of control and 101 % of control | dose: 200.0 mg/kg/injection, schedule: Q04DX002 (ip), vehicle: saline 100 % of control | dose: 400.0 mg/kg/injection, schedule: Q04DX002 (ip), vehicle: saline 112 % of control

NC(=S)SCCC(=O)N1CCCC1
inactive: dose: 25.0 mg/kg/injection, schedule: Q01DX005 (ip), vehicle: Klucel (hydroxypropylcellulose) (HPC) 103 % of control | [9] 97 % of control | [10] 99 % of control | [13] 101 % of control

CCn1c2ccccc2c2cc(/C=N/N=C/c3ccc4c(c3)c3ccccc3n4CC)ccc21
inactive: dose: 3.12 mg/kg/injection, schedule: Q01DX005 (ip), vehicle: saline with Tween-80 93 % of control | dose: 6.25 mg/kg/injection, schedule: Q01DX005 (ip), vehicle: saline with Tween-80 90 % of control | dose: 12.5 mg/kg/injection, schedule: Q01DX005 (ip), vehicle: saline with Tween-80 88 % of control

COC1/C=C/OC2(C)Oc3c(C)c(O)c4c(O)c(c5c(nc(-c6ccco6)n5-c5ccccc5)c4c3C2=O)NC(=O)/C(C)=C\C=C\C(C)C(O)C(C)C(O)C(C)C(OC(C)=O)C1C (stereo not given)
inactive: [3] 89 % of control | [4] 95 % of control | [5] 95 % of control | [14] 93 % of control

C[Si](C)(C)N1C(=O)c2ccccc2C1=O
inactive: [4] 100 % of control | [5] 115 % of control | [14] 107 % of control

COC(=O)c1ncn(Cc2ccccc2)c1O (tested in a mixture with another compound)
inactive: dose: 60.0 mg/kg/injection, schedule: Q01DX005 (ip), vehicle: water 93 % of control | dose: 120.0 mg/kg/injection, schedule: Q01DX005 (ip), vehicle: water 107 % of control | dose: 240.0 mg/kg/injection, schedule: Q01DX005 (ip), vehicle: water 110 % of control

CSCC1Cc2ccccc2N=C(c2ccccc2)O1 (stereo not given)
inactive: [11] 100 % of control | [12] 97 % of control | dose: 400.0 mg/kg/injection, schedule: Q01DX001 (ip), vehicle: saline with Tween-80 100 % of control

COC(=O)C1(C)CC2C(C)(CCC3(C)C4=CC=C5C(=CC(=O)C(O)=C5C)C4(C)CCC23C)CC1O (stereo not given)
inactive: dose: 6.25 mg/kg/injection, schedule: Q01DX001 (ip), vehicle: saline with Tween-80 100 % of control | dose: 12.5 mg/kg/injection, schedule: Q01DX001 (ip), vehicle: saline with Tween-80 99 % of control | dose: 25.0 mg/kg/injection, schedule: Q01DX001 (ip), vehicle: saline with Tween-80 99 % of control | [11] 100 % of control

CCCNC(=S)N/N=C\C(C)=N\Nc1ccc(Cl)cc1
inactive: dose: 100.0 mg/kg/injection, schedule: Q04DX003 (ip), vehicle: saline 95 % of control | dose: 200.0 mg/kg/injection, schedule: Q04DX003 (ip), vehicle: saline 96 % of control | dose: 400.0 mg/kg/injection, schedule: Q04DX003 (ip), vehicle: saline 97 % of control

C1CCCc2c(-c3n[nH]c4c3CCCCCC4)n[nH]c2CC1
inactive: [15] 100 % of control | [16] 95 % of control | dose: 240.0 mg/kg/injection, schedule: Q01DX005 (ip), vehicle: saline with Tween-80 100 % of control

Cc1cc2nc3c(C(O)C(O)C(O)CO)nn(-c4ccc(F)cc4)c3nc2cc1C (stereo not given)
inactive: [9] 88 % of control | [10] 86 % of control | [13] 93 % of control

COC(=O)c1cc2cc3ccccc3cc2cc1C(=O)OC
inactive: dose: 15.0 mg/kg/injection, schedule: Q01DX005 (ip), vehicle: saline with Tween-80 100 % of control | dose: 30.0 mg/kg/injection, schedule: Q01DX005 (ip), vehicle: saline with Tween-80 101 % of control | [15] 102 % of control

CC(=O)/C(=C\c1cccc(Cl)c1)C(=O)CCN(C)C
inactive: [15] 108 % of control and 111 % of control | [16] 115 % of control

Cc1ccc(C)c2c1C(O)(C#Cc1ccccc1)c1ccccc1C2(O)C#Cc1ccccc1 (stereo not given)
inactive: [1] 86 % of control | [2] 86 % of control

Cn1c2ccccc2c(=Nc2ccc(S(=O)(=O)N=C(N)N)cc2)c2ccccc21
inactive: dose: 50.0 mg/kg/injection, schedule: Q01DX005 (ip), vehicle: saline with Tween-80 106 % of control | dose: 100.0 mg/kg/injection, schedule: Q01DX005 (ip), vehicle: saline with Tween-80 96 % of control
